Results as given in patent US5093337A, “Substituted derivatives of 20,21-dinoreburnamenine, their use as medicaments and the pharmaceutical compositions containing them” (Roussel Uclaf, priority 1987, dated 1992).

Key:
[1] = Test for hypobar anoxemia in a mouse (survival time); assay type: in vivo; conditions: 10 mg/kg intraperitoneal, 60 minutes before the test; 600 mmHg depression; relative to control mice
Procedure: 3) Test for hypobar anoxemia in a mouse
This consists of measuring for a maximum duration of 3 minutes the survival time of mice placed in a 2 liter chamber in which a 600 mmHg depression is carried out. Mice deprived of food for 6 hours are used. The products are administered at a dose of 10 mg/kg by intraperitoneal route in a volume of 0.2 ml/10 g 60 minutes before the test.
The increase in survival time is noted, expressed as a percentage of the animals treated in relation to the control animals, submitted to the same conditions.

[2] = Asphyxic anoxemia (latency time for disappearance of the ECoG); assay type: in vivo, Sprague Dawley (Charles River) male rat; conditions: 10 mg/kg intravenous, 3 minutes before asphyxia; rat; read-out: % of variation of the latency time for disappearance of the ECoG after asphyxia
Procedure: The test is carried out using a Sprague Dawley (Charles River) male rat anaesthetized with ethyl ether, immobilized (tube curare 1 mg/kg I.V.) and artificially ventilated with air. The electrocorticogram (ECoG) and the arterial pressure are recorded. The rectal temperature is maintained at around 36° C. and the level of carbon dioxide in the blood is maintained between 35 and 40 torr. The products are administered at a dose of 10 mg/kg by intravenous route in a volume of 1 ml/kg 3 minutes before asphyxia obtained by stopping the artificial respiration. The latency time for the disappearance of the ECoG is measured.

[3] = test system: adrenergic alpha2 receptors; assay: Affinity for adrenergic alpha2 receptors (inhibition of specific 3H rauwolscine fixation, rat cortex); assay type: binding, rat (male; brain cortices); conditions: from CD (phentolamine) and CX (product) inhibiting 50% of specific fixation of 3H rauwolscine 0.15 nM, 25° C., 45 minutes
Procedure: 1) Affinity for adrenergic alpha2 receptors:
10 cortices removed from the brains of male rats weighing on average 150 g are homogenized in 90 ml of 0.32M sucrose. After centrifuging 1,000 g of the homogenized mixture for 10 minutes at 0° C., the supernatant is centrifuged at 30,000 g for 10 minutes at 0°/+4° C. The deposit is put in suspension in 240 ml of buffer TrisHCl 50 mM pH 7.7, and centrifuged at 30,000 g for 15 minutes at 0°/+4° C. The new deposit obtained is put in suspension in 480 ml of buffer NaKPO4 pH 7.4 50 mM.
2 ml of suspension is then incubated for 45 minutes at 25° C. in the presence of ^3 H rauwolscine at a 0.15 nM concentration:
ii) with increasing concentrations of the product under test or,
iii) in order to determine the non-specific fixation,
with non-radioactive phentolamine at a 10^-5 M concentration.
The incubated suspensions are filtered on Whatman GF/C and the filters are washed three times with 5 ml of buffer NaKPO4 pH 7.4 at 0° C. The radioactivity of the filters is measured by liquid scintillation.
The affinity of the product tested for adrenergic alpha2 receptors is given in relation to the phentolamine as a reference product.
CD=concentration of phentolamine inhibiting 50% of the specific fixation of ^3 H rauwolscine;
CX=concentration of the product under test inhibiting 50% of the specific fixation of ^3 H rauwolscine.
The relative affinity is given by the relation: [formula]

[4] = Anti-amnesic effect in a passive avoidance (electric shock treatment amnesia); assay type: in vivo; conditions: 2 mg/kg by oral route; rat
Source text: Anti-Amnesic Effect in a Passive Avoidance
Rats are placed individually in the lighted compartment of a box having two compartments, the other one being dark. They take refuge immediately in the dark compartment and upon their entry the rats receive an electric shock (1 mA/5 sec) from the grated floor. […] In the second group, the electric shock is immediately followed by the application of an amnesic electric shock treatment (60 mA, 0.6 ms, 0.6 s) (electric shock treatment control group). The third group is identical to the second, but the electric shock treatment is immediately followed by the administration of the compound under test (treated group). Twenty-four hours later, the animals are replaced in the lighted compartment of the box and the latency time of entry into the dark compartment is measured (up to 300 sec. maximum). For the controls, this time is close to 300 sec. The electric shock treatment controls on the other hand move into the dark compartment much more rapidly (amnesic effect).

[5] = Test for anti-depressive activity (forced swimming, duration of immobility); assay type: in vivo, Sprague Dawley rats; conditions: ip, 5 min; i.p. 24, 5 and half an hour before the test; immobility over 5 minutes; rat; read-out: AD50 (the source's name)
Procedure: 5) Test for anti-depressive activity
The tests are carried out on groups of 5 Sprague Dawley rats. The unaffected animals are placed for 15 minutes in a vertical cylinder of plexiglass (diameter: 18 cm, height: 40 cm) containing water at 25° C. at a height of 15 cm (initial swimming test). They are then dried for 15 minutes in a chamber heated to 32° C.; 24 hours later, they are replaced in the cylinder, filled with water, and the total duration of the periods of immobility is measured over 5 minutes.
The compound is administered i.p. successively 24, 5 and half an hour before the test. The first administration takes place immediately after the initial swimming test, just before the animals are replaced in their breeding box.
The averages of the treated groups are compared with those of the control group using Dunnett's test.

[6] = Test for spontaneous alternation after septal cholinergic injury; assay type: in vivo; conditions: range of doses from 1 to 10 mg/kg i.p., 30 minutes before each session; rat
Source text: 4) Test for spontaneous alternation after septal cholinergic injury
The behaviour of spontaneous alternation is an essential characteristic of the behavioural performance of the rat, which, put in a situation of choice between a familiar stimulus and a new stimulus, will choose the latter. Thus, in the case of a labyrinth Y, the animal will preferably choose an arm which has not yet been explored as opposed to an arm that he has just visited (spontaneous alternation). This faculty of discrimination between the "familiar" and the "new" implies the coming into play of a form of memory, the Short Term Memory or Work Memory. The performances of spontaneous alternation allow therefore an evaluation of the capacity of this type of memory.
The method used consists of creating a mnesic deficit in the rat, by lesion of the septo-hippocampic cholinergic system, and of researching whether the product under test is capable of reversing this deficit. In the present case, this deficit is evaluated in a spontaneous alternation behaviour; the lesioned animal has alternation performances of about 50%, because it carries out its choices by chance.
Each experiment comprises a control-vehicle group, a lesioned-vehicle group and one or two lesioned groups receiving the product under test. […]

| RAL (relative affinity, in relation to phentolamine as reference product) [3] | SMILES | change in vivo at 10 mg/kg [2] [%] | other results |
| --- | --- | --- | --- |
| – | O=[N+]([O-])c1cccc2c1c1c3n2C(O)CC2CCCN(CC1)C32 (racemic) [Example 40, [(±) (16alpha)]-9-nitro-14,15dihydro-20,21-dinoreburnamenin-14-ol] | – | % of increase in survival time [1]: 22% |
| 110 | Clc1ccc2c3c4n(c2c1)C=C[C@H]1CCCN(CC3)[C@H]41 (relative stereo) [Example 2, [(±) (16alpha)]-11-chloro-20,21-dinoreburnamenine] | 43 | – |
| 35 | O[C@@H]1C[C@H]2CCCN3CCc4c(n1c1ccc(Cl)cc41)[C@H]23 (relative stereo) [Example 4, [(±) (14alpha, 16alpha)]-10-chloro-14,15-dihydro-20,21-dinoreburnamenin-14-ol] | – | – |
| 55 | Clc1ccc2c(c1)c1c3n2C=C[C@H]2CCCN(CC1)[C@H]32 (relative stereo) [Example 5, [(±) 16alpha]-10-chloro-20,21-dinoreburnamenine] | 26 | – |
| – | Cc1ccc2c3c4n(c2c1)[C@H](O)C[C@H]1CCCN(CC3)[C@H]41 (relative stereo) [Example 8, [(±) (14alpha, 16alpha)]-14,15-dihydro-11-methyl-20,21-dinoreburnamenin-14-ol] | 37 | – |
| 160 | Cc1ccc2c3c4n(c2c1)C=C[C@H]1CCCN(CC3)[C@H]41 (relative stereo) [Example 10, [(±) (16alpha)]-11-methyl-20,21-dinoreburnamenine] | 47 | reversal of the effect of an electric shock treatment (passive avoidance) [4]: reverses the anti-amnesic effect of an electric shock treatment; ED50 [5]: 13 mg/kg; reversal of the mnesic deficit caused by the septal cholinergic lesion (spontaneous alternation) [6]: reverses the mnesic deficit caused by the septal cholinergic lesion |
| 39 | Cc1ccc2c3c4n(c2c1)CC[C@H]1CCCN(CC3)[C@H]41 (relative stereo) [Example 12, [(±) (16alpha)]-14,15-dihydro-11-methyl-20,21-dinor-eburnamenine] | 18 | – |
| 136 | Cc1ccc2c(c1)c1c3n2C=C[C@H]2CCCN(CC1)[C@H]32 (relative stereo) [Example 16, [(±) (16alpha)]-10-methyl-20,21-dinoreburnamenine] | 22 | – |
| 39 | Cc1ccc2c(c1)c1c3n2CC[C@H]2CCCN(CC1)[C@H]32 (relative stereo) [Example 18, [(±) (16alpha)]-14,15-dihydro-10-methyl-20,21-dinoreburnamenine] | – | – |
| – | COc1ccc2c3c4n(c2c1)[C@@H](O)C[C@H]1CCCN(CC3)[C@H]41 (relative stereo) [Example 21, [(±) (14beta, 16alpha)]-14,15-dihydro-11-methoxy-20,21-dinoreburnamenin-14-ol] | 30 | – |
| – | COc1ccc2c3c4n(c2c1)[C@H](O)C[C@H]1CCCN(CC3)[C@H]41 (relative stereo) [Example 22, [(±) (14alpha, 16alpha)]-14,15-dihydro-11-methoxy-20,21-dinoreburnamenin-14-ol] | 18 | – |
| – | COc1ccc2c3c4n(c2c1)C=C[C@H]1CCCN(CC3)[C@H]41 (relative stereo) [Example 24, [(±) 16alpha]-11-methoxy-20,21-norburnamenine] | 35 | – |
| – | COc1ccc2c3c4n(c2c1)CC[C@H]1CCCN(CC3)[C@H]41 (relative stereo) [Example 25, [(±) (16alpha)]-14,15-dihydro-11-methoxy-20,21-dinoreburnamenine] | 20 | – |
| – | COc1ccc2c(c1)c1c3n2[C@H](O)C[C@H]2CCCN(CC1)[C@H]32 (relative stereo) [Example 28, [(±) (14alpha, 16alpha)]-14,15-dihydro-10-methoxy-20,21-dinoreburnamenin-14-ol] | 35 | – |
| – | COc1ccc2c(c1)c1c3n2C=C[C@H]2CCCN(CC1)[C@H]32 (relative stereo) [Example 29, [(±) (16alpha)]-10-methoxy-20,21-dinoreburnamenine] | 25 | – |
| – | O=[N+]([O-])c1ccc2c3c4n(c2c1)C=C[C@H]1CCCN(CC3)[C@H]41 (relative stereo) [Example 39, [(±) (16alpha)]-11-nitro-20,21-dinoreburnamenine] | – | % of increase in survival time [1]: 14% |
| – | O=[N+]([O-])c1cccc2c1c1c3n2C=C[C@H]2CCCN(CC1)[C@H]32 (relative stereo) [Example 41, [(±) (16alpha)]-9-nitro-20,21-dinoreburnamenine] | – | % of increase in survival time [1]: 13% |
